These are literature values, as cited in patent publication US5026825A, “Intranasal calcitonin formulations” (Rhone-Poulenc Rorer Pharmaceuticals Inc., priority 1988, dated 1991).

Ends that are not written are not given here.

The conditions of one data set: calcitonin used in Example 6; USP 4,391,747.
As to Des asparagine-3-Calcitonins, the potency is listed as 4,300 MRC units/mg.

Staying with this data set, now noted: calcitonins used in Examples 7-10; from cited US patents.
For “[16-Alanine] Calcitonins [16-alanine calcitonin]”, the potency is given as 6,200 IU/mg.
As for Glycine^8 -D-Arginine^24 Calcitonins, the potency was 3,500 IU/mg.
With D-Arginine^24 Calcitonins, the potency was 5,000 IU/mg.
In the case of 1A-endo-glycine-calcitonin, the potency is given as 4,650 IU/mg.

Staying with this data set, now noted: in vivo.
Take eel calcitonin: the “potency (level of hypocalcemic activity)” value is 2,000 to 4,000 MRC U/mg peptide.
Take “beef calcitonin: natural calcitonin of beef (bovine) (CSNLSTCVLSAYWKDLNNYHRFSGMGFGPETP; ends and bridges not checked; cysteine pairing not given here; UniProt P01260 1-32, looked up)”: the “potency (level of hypocalcemic activity)” value is listed as 100 to 200 MRC U/mg peptide.
As for “hog calcitonin: natural calcitonin of hog (porcine) (CSNLSTCVLSAYWRNLNNFHRFSGMGFGPETP; ends and bridges not checked; cysteine pairing not given here; UniProt P01259 1-32, looked up)”, the “potency (level of hypocalcemic activity)” value is 100 to 200 MRC U/mg peptide.
With “man calcitonin: natural calcitonin of man (human)”, the “potency (level of hypocalcemic activity)” value was 100 to 200 MRC U/mg peptide.
As to “chicken calcitonin (CASLSTCVLGKLSQELHKLQTYPRTDVGAGTP; ends and bridges not checked; cysteine pairing not given here; UniProt P07660 82-113, looked up) [natural calcitonin of chicken]”, the “potency (level of hypocalcemic activity)” value was 4,000 to 6,000 MCR (Medical Research Council) U/mg peptide.
On to “rat calcitonin: natural calcitonin of rat (CGNLSTCMLGTYTQDLNKFHTFPQTSIGVGAP; ends and bridges not checked; cysteine pairing not given here; UniProt P01257 85-116, looked up)”, for which the “potency (level of hypocalcemic activity)” value is recorded as 400 MRC U/mg.
